Reference: patent US9133158B2, “Bicyclic dihydroisoquinoline-1-one derivatives” (Hoffmann-La Roche Inc., priority 2011, dated 2015)
pEC50: −log10 of the molar value. Blank lines part the entries; values can stand above or below the molecule they belong to.

Assays:
human CYP11B1 = biological target: T1, human CYP11B1 (Homo sapiens, UniProt P15538); assay: G-402 cellular enzyme assay, human CYP11B1 (cortisol release, HTRF); assay type: cell-based; settings: G-402 cells, 1 μM Deoxycortisol
T1 construct: expressed in transfected cells
T1 sequence (P15538 25-503): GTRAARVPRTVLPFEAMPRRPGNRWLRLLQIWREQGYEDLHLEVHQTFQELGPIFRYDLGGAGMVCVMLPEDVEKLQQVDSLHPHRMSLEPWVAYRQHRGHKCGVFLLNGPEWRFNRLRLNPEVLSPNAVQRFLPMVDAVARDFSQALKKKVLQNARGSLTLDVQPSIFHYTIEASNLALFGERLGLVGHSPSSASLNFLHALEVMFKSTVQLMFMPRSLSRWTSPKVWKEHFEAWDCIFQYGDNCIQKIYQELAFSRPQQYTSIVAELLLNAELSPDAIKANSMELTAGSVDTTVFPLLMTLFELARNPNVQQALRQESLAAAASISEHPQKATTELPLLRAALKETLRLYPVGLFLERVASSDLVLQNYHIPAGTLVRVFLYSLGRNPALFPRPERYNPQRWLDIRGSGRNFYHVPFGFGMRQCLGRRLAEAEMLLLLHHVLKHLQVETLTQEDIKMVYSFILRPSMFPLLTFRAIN
Method in brief: (§1)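 G-402 cells stably expressing human CYP11B1 or CYP11B2 incubated 16 h in DMEM/F12 with 2.5% charcoal-treated FCS, compound, and 1 μM 11-deoxycortisol (B1) or 1 μM deoxycorticosterone (B2). Cortisol (B1) or aldosterone (B2) in supernatant measured by HTRF; EC50 from 4-parameter MMF fit.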

human CYP11B2 = biological target: T2, human CYP11B2 (Homo sapiens, UniProt P19099); assay: G-402 cellular enzyme assay, human CYP11B2 (aldosterone release, HTRF); assay type: cell-based; settings: G-402 cells, 1 μM Deoxycorticosterone
T2 construct: expressed in transfected cells
T2 sequence (P19099 25-503): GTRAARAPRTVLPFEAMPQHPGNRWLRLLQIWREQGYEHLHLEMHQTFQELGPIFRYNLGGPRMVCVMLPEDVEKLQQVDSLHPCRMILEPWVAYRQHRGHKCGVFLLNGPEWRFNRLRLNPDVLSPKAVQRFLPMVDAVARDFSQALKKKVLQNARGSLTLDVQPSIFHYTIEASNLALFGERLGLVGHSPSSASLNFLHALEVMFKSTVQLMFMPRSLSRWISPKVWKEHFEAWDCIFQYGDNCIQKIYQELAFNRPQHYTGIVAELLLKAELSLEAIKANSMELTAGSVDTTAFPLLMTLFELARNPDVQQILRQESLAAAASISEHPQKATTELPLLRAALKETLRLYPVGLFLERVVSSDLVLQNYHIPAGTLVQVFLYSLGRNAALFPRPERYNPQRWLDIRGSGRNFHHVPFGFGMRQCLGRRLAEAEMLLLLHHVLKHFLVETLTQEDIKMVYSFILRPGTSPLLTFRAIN
Method in brief: as §1

Compound: O=C1c2ccc(Cl)cc2CCN1c1cncc(N2CCC[C@H]2CO)c1 [Example 135, 6-Chloro-2-[5-((S)-2-hydroxymethyl-pyrrolidin-1-yl)-pyridin-3-yl]-3,4-dihydro-2H-isoquinolin-1-one]
- pEC50 (human CYP11B1): 6.28
- pEC50 (human CYP11B2): 7.03

Compound: O=C1c2ccc(Cl)cc2CN1c1cncc(N2CCC[C@H]2CO)c1 [Example 136, 5-Chloro-2-[5-((S)-2-hydroxymethyl-pyrrolidin-1-yl)-pyridin-3-yl]-2,3-dihydro-isoindol-1-one]
- pEC50 (human CYP11B1): 5.58
- pEC50 (human CYP11B2): 6.99

Compound: O=C1c2ccc(Cl)cc2CCN1c1cncc(N2CC[C@@H](O)C2)c1 [Example 137, 6-Chloro-2-[5-((R)-3-hydroxy-pyrrolidin-1-yl)-pyridin-3-yl]-3,4-dihydro-2H-isoquinolin-1-one]
- pEC50 (human CYP11B1): 6.97
- pEC50 (human CYP11B2): 8.00

Compound: O=C1c2ccc(Cl)cc2CN1c1cncc(N2CC[C@@H](O)C2)c1 [Example 138, 5-Chloro-2-[5-((R)-3-hydroxy-pyrrolidin-1-yl)-pyridin-3-yl]-2,3-dihydro-isoindol-1-one]
- pEC50 (human CYP11B1): 6.71
- pEC50 (human CYP11B2): 7.79

Compound: COc1cncc(N2CCc3nc(O)ccc3C2=O)c1 [Example 139, 2-Hydroxy-6-(5-methoxy-pyridin-3-yl)-7,8-dihydro-6H-[1,6]naphthyridin-5-one]
- pEC50 (human CYP11B1): 4.95
- pEC50 (human CYP11B2): 6.02

Compound: O=C1c2ccc(Cl)cc2CCN1c1cncc(CN2CCCC(O)C2)c1 (centres unmarked) [Example 144, 6-Chloro-2-[5-(3-hydroxy-piperidin-1-ylmethyl)-pyridin-3-yl]-3,4-dihydro-2H-isoquinolin-1-one]
- pEC50 (human CYP11B1): 6.85
- pEC50 (human CYP11B2): 7.63

Compound: CC(C)S(=O)(=O)NCc1cncc(N2CCc3cc(Cl)ccc3C2=O)c1 [Example 145, Propane-2-sulfonic acid [5-(6-chloro-1-oxo-3,4-dihydro-1H-isoquinolin-2-yl)-pyridin-3-ylmethyl]-amide]
- pEC50 (human CYP11B1): 5.72
- pEC50 (human CYP11B2): 5.82

Compound: O=C1c2ccc(Cl)cc2CCN1c1cncc(CN2CCC(O)C2)c1 (centres unmarked) [Example 146, 6-Chloro-2-[5-(3-hydroxy-pyrrolidin-1-ylmethyl)-pyridin-3-yl]-3,4-dihydro-2H-isoquinolin-1-one]
- pEC50 (human CYP11B1): 6.94
- pEC50 (human CYP11B2): 7.40

Compound: O=C1c2ccc(Cl)cc2CCN1c1cncc(CN2CC[C@@H](O)C2)c1 [Example 147, 6-Chloro-2-[5-((R)-3-hydroxy-pyrrolidin-1-ylmethyl)-pyridin-3-yl]-3,4-dihydro-2H-isoquinolin-1-one]
- pEC50 (human CYP11B1): 6.61
- pEC50 (human CYP11B2): 7.44

Compound: O=C1c2ccc(Cl)cc2CCN1c1cncc(CN2CC[C@H](O)C2)c1 [Example 148, 6-Chloro-2-[5-((S)-3-hydroxy-pyrrolidin-1-ylmethyl)-pyridin-3-yl]-3,4-dihydro-2H-isoquinolin-1-one]
- pEC50 (human CYP11B1): 6.86
- pEC50 (human CYP11B2): 7.35

Compound: O=C1c2ccc(Cl)cc2CCN1c1cncc(CN2CCC[C@H]2CO)c1 [Example 149, 6-Chloro-2-[5-((S)-2-hydroxymethyl-pyrrolidin-1-ylmethyl)-pyridin-3-yl]-3,4-dihydro-2H-isuquinolin-1-one]
- pEC50 (human CYP11B1): 5.72
- pEC50 (human CYP11B2): 6.90

Compound: O=C1c2ccc(Cl)cc2CCN1c1cncc(CN2CCC[C@@H]2CO)c1 [Example 150, 6-Chloro-2-[5-((R)-2-hydroxymethyl-pyrrolidin-1-ylmethyl)-pyridin-3-yl]-3,4-dihydro-2H-isoquinolin-1-one]
- pEC50 (human CYP11B1): 5.27
- pEC50 (human CYP11B2): 6.64

Compound: CS(=O)(=O)NCc1cncc(N2CCc3cc(Cl)ccc3C2=O)c1 [Example 152, N-[5-(6-Chloro-1-oxo-3,4-dihydro-1H-isoquinolin-2-yl)-pyridin-3-ylmethyl]-methanesulfonamide]
- pEC50 (human CYP11B1): 4.94
- pEC50 (human CYP11B2): 6.53

Compound: CC(=O)NCc1cncc(N2CCc3cc(Cl)ccc3C2=O)c1 [Example 153, N-[5-(6-Chloro-1-oxo-3,4-dihydro-1H-isoquinolin-2-yl)-pyridin-3-ylmethyl]-acetamide]
- pEC50 (human CYP11B1): 4.82
- pEC50 (human CYP11B2): 6.52

Compound: O=C1c2ccc(Cl)cc2CCN1c1cncc(CN2CCOCC2)c1 [Example 154, 6-Chloro-2-(5-morpholin-4-ylmethyl-pyridin-3-yl)-3,4-dihydro-2H-isoquinolin-1-one]
- pEC50 (human CYP11B1): 6.71
- pEC50 (human CYP11B2): 7.13

Compound: O=C1CCCN1Cc1cncc(N2CCc3cc(Cl)ccc3C2=O)c1 [Example 155, 6-Chloro-2-[5-(2-oxo-pyrrolidin-1-ylmethyl)-pyridin-3-yl]-3,4-dihydro-2H-isoquinolin-1-one]
- pEC50 (human CYP11B1): 5.39
- pEC50 (human CYP11B2): 6.88

Compound: O=C1c2ccc(Cl)cc2CCN1c1cncc(CN2CCS(=O)(=O)CC2)c1 [Example 156, 6-Chloro-2-[5-(1,1-dioxo-1λ^6-thiomorpholin-4-ylmethyl)-pyridin-3-yl]-3,4-dihydro-2H-isoquinolin-1-one]
- pEC50 (human CYP11B1): 6.47
- pEC50 (human CYP11B2): 7.36

Compound: O=C1OCCN1Cc1cncc(N2CCc3cc(Cl)ccc3C2=O)c1 [Example 157, 6-Chloro-2-[5-(2-oxo-oxazolidin-3-ylmethyl)-pyridin-3-yl]-3,4-dihydro-2H-isoquinolin-1-one]
- pEC50 (human CYP11B1): 4.95
- pEC50 (human CYP11B2): 6.45

Compound: O=C1NCCN1Cc1cncc(N2CCc3cc(Cl)ccc3C2=O)c1 [Example 158, 6-Chloro-2-[5-(2-oxo-imidazolidin-1-ylmethyl)-pyridin-3-yl]-3,4-dihydro-2H-isoquinolin-1-one]
- pEC50 (human CYP11B1): 5.22
- pEC50 (human CYP11B2): 6.74

Continued, values first:

- pEC50 (human CYP11B1): 5.37
- pEC50 (human CYP11B2): 6.97
Compound: CC1(C)c2cc(Cl)ccc2C(=O)N1c1cccnc1 [Example 128, 5-Chloro-3,3-dimethyl-2-pyridin-3-yl-2,3-dihydro-isoindol-1-one]

- pEC50 (human CYP11B1): 5.50
- pEC50 (human CYP11B2): 7.20
Compound: CC1(C)c2cc(Cl)ccc2C(=O)N1c1cncc(F)c1 [Example 129, 5-Chloro-2-(5-fluoro-pyridin-3-yl)-3,3-dimethyl-2,3-dihydro-isoindol-1-one]

- pEC50 (human CYP11B1): 6.62
- pEC50 (human CYP11B2): 7.81
Compound: COc1cncc(N2C(=O)c3ccc(Cl)cc3C2(C)C)c1 [Example 130, 5-Chloro-2-(5-methoxy-pyridin-3-yl)-3,3-dimethyl-2,3-dihydro-isoindol-1-one]

- pEC50 (human CYP11B1): 6.58
- pEC50 (human CYP11B2): 7.92
Compound: CC1(C)c2cc(Cl)ccc2C(=O)N1c1cncc(OC(F)F)c1 [Example 131, 5-Chloro-2-(5-difluoromethoxy-pyridin-3-yl)-3,3-dimethyl-2,3-dihydro-isoindol-1-one]

- pEC50 (human CYP11B1): 6.28
- pEC50 (human CYP11B2): 7.42
Compound: CC(O)c1cncc(N2C(=O)c3ccc(Cl)cc3C2(C)C)c1 (centres unmarked) [Example 132, 5-Chloro-2-[5-(1-hydroxy-ethyl)-pyridin-3-yl]-3,3-dimethyl-2,3-dihydro-isoindol-1-one]

- pEC50 (human CYP11B1): 5.86
- pEC50 (human CYP11B2): 7.01
Compound: CC1(C)c2cc(Cl)ccc2C(=O)N1c1cncc(CO)c1 [Example 133, 5-Chloro-2-(5-hydroxymethyl-pyridin-3-yl)-3,3-dimethyl-2,3-dihydro-isoindol-1-one]

- pEC50 (human CYP11B1): 6.37
- pEC50 (human CYP11B2): 7.73
Compound: Cc1nccn1Cc1cncc(N2C(=O)c3ccc(Cl)cc3C2(C)C)c1 [Example 134, 5-Chloro-3,3-dimethyl-2-[5-(2-methyl-imidazol-1-ylmethyl)-pyridin-3-yl]-2,3-dihydro-isoindol-1-one]

- pEC50 (human CYP11B1): 7.15
- pEC50 (human CYP11B2): 7.93
Compound: O=C1c2ccc(Cl)cc2CCN1c1cncc(Cn2ccnc2)c1 [Example 140, 6-Chloro-2-(5-imidazol-1-ylmethyl-pyridin-3-yl)-3,4-dihydro-2H-isoquinolin-1-one]

- pEC50 (human CYP11B1): 5.88
- pEC50 (human CYP11B2): 7.39
Compound: CC(C)c1nccn1Cc1cncc(N2CCc3cc(Cl)ccc3C2=O)c1 [Example 141, 6-Chloro-2-[5-(2-isopropyl-imidazol-1-ylmethyl)-pyridin-3-yl]-3,4-dihydro-2H-isoquinolin-1-one]

- pEC50 (human CYP11B1): 6.01
- pEC50 (human CYP11B2): 7.10
Compound: Cc1nccn1Cc1cncc(N2CCc3cc(Cl)ccc3C2=O)c1 [Example 142, 6-Chloro-2-[5-(2-methyl-imidazol-1-ylmethyl)-pyridin-3-yl]-3,4-dihydro-2H-isoquinolin-1-one]

- pEC50 (human CYP11B1): 5.35
- pEC50 (human CYP11B2): 6.59
Compound: CCc1nc(C)cn1Cc1cncc(N2CCc3cc(Cl)ccc3C2=O)c1 [Example 143, 6-Chloro-2-[5-(2-ethyl-4-methyl-imidazol-1-ylmethyl)-pyridin-3-yl]-3,4-dihydro-2H-isoquinolin-1-one]

- pEC50 (human CYP11B1): 5.41
- pEC50 (human CYP11B2): 7.00
Compound: Cc1cc(C)n(Cc2cncc(N3CCc4cc(Cl)ccc4C3=O)c2)n1 [Example 151, 6-Chloro-2-[5-(3,5-dimethyl-pyrazol-1-ylmethyl)-pyridin-3-yl]-3,4-dihydro-2H-isoquinolin-1-one]
